Where two headings read alike, the source gives them in different places.
Tests used:
[1] = test system: HBV; test: Anti-HBV test in infected Huh7 cells; format: cell-based; conditions: Hepatitis B virus
[2] = test system: respiratory syncytial virus; test: Virus panel, CPE assay: respiratory syncytial virus in Hela cells; format: cell-based; conditions: human respiratory syncytial virus, read-out: in vitro antiviral activity (EC50), none up to
[3] = test system: influenza A (H1N1); test: Virus panel: influenza A (H1N1) in MDCK cells; format: cell-based; conditions: read-out: in vitro antiviral activity (EC50), none up to
Excerpt: (§1) influenza A (H1N1), influenza A (H3N2), influenza B, in MDCK cells;

[4] = test system: CMSP (uninfected cells); test: Cytotoxicity by MTT test in cultures of uninfected CMSP; conditions: text statement to Table VII
[5] = as above; conditions: human
[6] = Stability in total cell extracts (CEM-SS), HPLC; format: in vitro ADME; conditions: 37° C., 0.1 mM
Method: (§2) Media and preparation of cell extracts. Culture medium was composed by RPMI 1640 containing 10% (v/v) heat-inactivated fetal calf serum and stored at −80° C. CEM-SS cell extracts were prepared according to a published procedure (Puech, F. et al. Antiv. Res. 1993, 22, 155-174). Exponentially growing CEM-SS cells were recovered by centrifugation (500 g, 4° C., 4 min), washed twice with PBS and resuspended in 10 mM Tris-HCl, 140 mM KCl (pH 7.4), at the concentration of 30×10^6 cells/mL. Cells were lyzed by ultrasonic treatment and cellular debris were removed by centrifugation (10000 g, 4° C., 20 min). The supernatant containing soluble proteins (3 mg/mL) was stored at −80° C.
Kinetic data and decomposition pathways for compounds 6 and 11 were studied at 37° C. […]
All the compounds were analyzed under the same conditions. […] The product of degradation from parent compound was determined by comparison with corresponding references.

[7] = test system: HBV; test: Anti-HBV test in infected HepAD38 cells (intracellular viral DNA by Q-PCR); format: cell-based; conditions: for EC50: Hepatitis B virus, 144 h, infected HepAD38 cells, 50% reduction of viral DNA, day 6 post-induction; for SI selectivity index (TC50/EC50): HBV, HepAD38 cells
Method: These are hepatoma cells that have been stably transfected with a cDNA copy of the pregenomic RNA of wild-type virus. Withdrawal of tetracycline from the culture medium results in the initiation of viral replication. This offers the advantage, in contrast to the Hep G2.2.15 cell lines commonly used, that there is no, or very limited background viral DNA synthesis. Cells were cultured at 37° C. in a humidified 5% CO2/air atmosphere in seeding medium, DMEM/Ham's F12 (50/50) supplemented with 10% (v/v) heat-inactivated fetal calf serum, 100 IU/ml penicillin, 50 μg/ml streptomycin, 100 Ξg/ml kanamycin, 400 μg/ml G418, and 0.3 μg/ml tetracycline. […] After 2-3 days the cultures were induced for viral production by washing with prewarmed PBS and were fed with […] assay medium (seeding medium without tetracycline and G418) with or without the antiviral compounds. Medium was changed after 3 days. The antiviral effect was quantified by measuring levels of intracellular viral DNA at day 6 post-induction, by a real time quantitative PCR (Q-PCR) method. Total cellular DNA was extracted from the cells by means of a commercial kit. […] The reaction was analyzed using a SDS 7000. A plasmid containing the full length insert of the HBV genome was used to prepare the standard curve. The amount of viral DNA produced in treated cultures was expressed as a percentage of the mock treated samples. […] The cytostatic effect of the various compounds was assessed employing the parent hepatoma cell line HepG2. The effect of the compounds on exponentially growing HepG2 cells was evaluated by means of the MTS method. Briefly, cells were seeded at a density of 3000/well (96 well plate) and were allowed to proliferate for 3 days in the absence or presence of compounds after which the optical density was measured with a 96-well plate reader and cell density was determined.

[8] = test system: Sindbis virus; test: Virus panel, CPE assay: Sindbis virus in Vero cells; format: cell-based; conditions: read-out: in vitro antiviral activity (EC50), none up to
[9] = test system: Reovirus-1; test: Virus panel, CPE assay: Reovirus-1 in Vero cells; format: cell-based; conditions: Reovirus-1, Vero cells; read-out: in vitro antiviral activity (EC50), none up to
[10] = Stability in complete medium (RPMI 1640 containing 10% heat-inactivated fetal calf serum), HPLC; format: in vitro ADME
Method: as §2
Kinetic data and decomposition pathways for compounds 6 and 11 were studied at 37° C. (a) in complete medium (RPMI 1640 containing 10% heat-inactivated fetal calf serum (b) in total cells extracts (CEM-SS). For each kinetic study, the compound solution was diluted with a freshly thawed aliquot of the considered medium to obtain an initial concentration of 0.1 mM. The mixture was incubated at 37° C. and for the required time, an aliquot (10% solution) was taken and immediately frozen at −80° C. for further HPLC analysis. The crude sample was injected into the precolumn and eluted with buffer A during 5 min. Then, the switching valve for connecting the precolumn to the column was activated, and a linear gradient from buffer A to buffer B, increasing buffer B from 0% at 0 min to 20% at 40 min is applied. The retention times were 6, 26 min; 11, 29.5 min, PMEA, 24.3 min and (R)-PMPA, 27.8 min.
All the compounds were analyzed under the same conditions. The amount of remaining parent compound at each time point was used to determine the half-life of the compound. The product of degradation from parent compound was determined by comparison with corresponding references.

[11] = Cytostatic effect on parent hepatoma cell line HepG2 (MTS method); conditions: human
[12] = test system: HIV-2 (ROD); test: Anti-HIV test in CEM cell cultures, syncytium formation, HIV-2 (ROD); format: cell-based; conditions: Human immunodeficiency virus 2, CCRF-CEM, read-out: EC50 (μM) HIV-2
[13] = test system: HIV-1 (IIIB); test: Anti-HIV test in CEM cell cultures, syncytium formation, HIV-1 (IIIB); format: cell-based; conditions: Human immunodeficiency virus 1, IIIB, CCRF-CEM, read-out: EC50 (μM) HIV-1
Method: Briefly, CEM cells (4.5×10^5 cells per ml) were suspended in fresh culture medium and infected with HIV-1 at 100 CCID50 per ml of cell suspension. Then, 100 μl of the infected cell suspension were transferred to microplate wells, mixed with 100 μl of the appropriate dilutions of the test compounds, and further incubated at 37° C. After 4 to 5 days, giant cell formation was recorded microscopically in the CEM cell cultures.

[14] = test system: Punta Toro virus; test: Virus panel, CPE assay: Punta Toro virus in Vero cells; format: cell-based; conditions: read-out: in vitro antiviral activity (EC50), none up to
[15] = test system: Parainfluenza-3-virus; test: Virus panel, CPE assay: Parainfluenza-3-virus in Vero cells; format: cell-based; conditions: read-out: in vitro antiviral activity (EC50), none up to
[16] = Cytotoxicity in CEM cell cultures (cell density); format: cell-based; conditions: human, 50% reduction in cell density, read-out: TC50 (the source's name)
[17] = test system: vesicular stomatitis virus; test: microbe, parasite or virus in culture; format: cell-based; conditions: HEL, read-out: in vitro antiviral activity (EC50), none up to
[18] = test system: Coxsackie B4; test: Virus panel, CPE assay: Coxsackie B4 virus in Hela and Vero cells; format: cell-based; conditions: Enterovirus B, read-out: in vitro antiviral activity (EC50), none up to
[19] = test system: HIV-1-LAI; test: Anti-HIV test in CMSP cultures infected by HIV-1-LAI (RT activity in supernatants); format: cell-based; conditions: for EC50: Human immunodeficiency virus 1, 168 h, read-out: EC50 (μM) HIV-1 (LAI); for IT (selectivity index, TC50/EC50): HIV-1 (LAI), CMSP
[20] = test system: influenza B; test: Virus panel: influenza B in MDCK cells; format: cell-based; conditions: read-out: in vitro antiviral activity (EC50), none up to
Excerpt: as §1

[21] = test system: influenza A (H3N2); test: Virus panel: influenza A (H3N2) in MDCK cells; format: cell-based; conditions: read-out: in vitro antiviral activity (EC50), none up to
Excerpt: as §1

[22] = test system: K65R mutant RT of HIV-1; test: biochemical; format: biochemical
[23] = biological target: K65R mutant RT of HIV-1 (Human immunodeficiency virus type 1 group M subtype B, UniProt P04585, K652R); test: biochemical; format: biochemical; conditions: for Selectivity = (kpol/Kd) natural nucleotide/(kpol/Kd) nucleotide analogue: versus dATP
[24] = biological target: wild-type RT of HIV-1 (Human immunodeficiency virus type 1 group M subtype B, UniProt P04585); test: biochemical; format: biochemical; conditions: for Selectivity = (kpol/Kd) natural nucleotide/(kpol/Kd) nucleotide analogue (discrimination): versus dATP
[25] = affinities of the RT for the analogues (Kd), wild-type RT, unit inferred

C[C@H](Cn1cnc2c(N)ncnc21)OCP(=O)(O)S (stereo partly drawn) [Compound 11, (R)-9-[2-(thiophosphonomethoxy)propyl]adenine]
EC50 ([1]; Huh-7, read-out: EC50 (μM) HBV): 5 µM | EC50 [2]: > 200 µM | EC50 [3]: > 200 µM | not cytotoxic (highest concentration tested) [4]: > 200 µM | CC50 at 7 days [5]: > 100 µM | t1/2 cell extracts [6]: stable^c | EC50 [7]: 2.26 µM | EC50 [8]: > 200 µM | EC50 [9]: > 200 µM | half-life at 0.1 mM ([10]; bovine, serum, 37° C., initial concentration 0.1 mM, read-out: t1/2 complete medium): > 24 h | product intact ([10]; complete medium, 37° C., degradation into the phosphonate): ^b: product 77% intact (degradation into PMPA) | degradation ([10]; culture medium): 20% | CC50 at 3 days [11]: > 174 µM | EC50 [12]: 8.6 µM | EC50 [13]: 11.1 µM | EC50 [14]: > 200 µM | EC50 [15]: > 200 µM | CC50 [16]: > 165 µM | EC50 [17]: > 200 µM | EC50 [18]: > 200 µM | EC50 [19]: 1.6 µM | EC50 [20]: > 200 µM | EC50 [21]: > 200 µM

Nc1ncnc2c1ncn2CCOCP(O)(=S)OP(=O)(O)OP(=O)(O)O (stereo not drawn) [Compound 12, 9-[2-(diphosphorylthiophosphonomethoxy)ethyl]adenine]
reduction in the incorporation velocity of the nucleotide (factor) [22]: 18 | Kd [23]: 0.7 µM | kpol ([23]; K65R mutant RT): 0.03 s⁻¹ | kpol/Kd ([23]; K65R mutant RT): 0.04 | Kd [24, 25]: 1.2 µM | incorporation velocity, times lower than that of natural nucleotide dATP ([24]; wild-type RT): 90 times | kpol ([24]; wild-type RT): 0.55 s⁻¹ | kpol/Kd ([24]; wild-type RT): 0.5 | Selectivity = (kpol/Kd) natural nucleotide/(kpol/Kd) nucleotide analogue (discrimination) ([24]; wild-type RT): 14.5

C[C@H](Cn1cnc2c(N)ncnc21)OCP(O)(=S)OP(=O)(O)OP(=O)(O)O (stereo partly drawn) [Compound 13, (R)-9-[2-(pyrophosphoroxythiophosphonomethoxy)propyl]adenine]
Kd [23]: 2.7 µM | kpol ([23]; K65R mutant RT): 0.077 s⁻¹ | kpol/Kd ([23]; K65R mutant RT): 0.03 | incorporation velocity, times lower than that of natural nucleotide dATP [24]: 90 times | kpol [24]: 0.58 s⁻¹ | kpol/Kd [24]: 0.11 | Kd ([24]; Kd (μM), wild-type RT): 5.2 µM | Kd [24, 25]: 5.5 µM | Selectivity = (kpol/Kd) natural nucleotide/(kpol/Kd) nucleotide analogue (discrimination) ([24]; wild-type RT): 59.8

Nc1ncnc2c1ncn2CCOCP(=O)(O)O [PMEA, 9-(2-(phosphonomethoxy)ethyl)adenine]
EC50 ([1]; Huh-7, infected Huh7 cells, 50% reduction of viral DNA, read-out: EC50 (μM) HBV): 6 µM | CC50 at 7 days [5]: > 19 µM | SI selectivity index (TC50/EC50) [7]: >23 | EC50 [7]: 8.8 µM | CC50 at 3 days [11]: > 200 µM | IT (selectivity index, TC50/EC50) [19]: >5 | EC50 ([19]; CMSP cultures, 7 days, RT activity in supernatants): 1.9 µM

Nc1ncnc2c1ncn2CCOCP(=O)(O)OP(=O)(O)OP(=O)(O)O [PMEApp, PMEA diphosphate]
reduction in the incorporation velocity of the nucleotide (factor) [22]: 9 | Kd ([23]; K65R mutant RT): 7.7 µM | kpol ([23]; K65R mutant RT): 0.75 s⁻¹ | kpol/Kd ([23]; K65R mutant RT): 0.1 | Selectivity = (kpol/Kd) natural nucleotide/(kpol/Kd) nucleotide analogue ([23]; K65R mutant RT): 16.9 | kpol ([24]; wild-type RT): 6.8 s⁻¹ | kpol/Kd ([24]; wild-type RT): 0.86 | Selectivity = (kpol/Kd) natural nucleotide/(kpol/Kd) nucleotide analogue (discrimination) ([24]; wild-type RT): 7.8 | Kd ([24]; wild-type RT, read-out: Kd): 7.9 µM

CC(Cn1cnc2c(N)ncnc21)OCP(=O)(O)O (stereo not drawn) [PMPA, 9-(2-(phosphonomethoxy)propyl)adenine]
EC50 ([1]; Huh-7, read-out: EC50 (μM) HBV): 4 µM | CC50 at 7 days [5]: > 100 µM | SI selectivity index (TC50/EC50) [7]: >12 | EC50 [7]: 2.88 µM | CC50 at 3 days ([11]; exponentially growing HepG2 cells): > 35 µM | IT (selectivity index, TC50/EC50) [19]: >77 | EC50 [19]: 1.3 µM

C[C@@H](Cn1cnc2c(N)ncnc21)OCP(=O)(O)OP(=O)(O)OP(=O)(O)O [PMPApp, PMPA diphosphate]
reduction in the incorporation velocity of the nucleotide (factor) [22]: 22 | Kd ([23]; K65R mutant RT): 18 µM | kpol ([23]; K65R mutant RT): 0.32 s⁻¹ | kpol/Kd ([23]; K65R mutant RT): 0.017 | Selectivity = (kpol/Kd) natural nucleotide/(kpol/Kd) nucleotide analogue ([23]; K65R mutant RT): 99.4 | kpol ([24]; wild-type RT): 7 s⁻¹ | kpol/Kd ([24]; wild-type RT): 0.3 | Selectivity = (kpol/Kd) natural nucleotide/(kpol/Kd) nucleotide analogue (discrimination) ([24]; wild-type RT): 22.3 | Selectivity = (kpol/Kd) natural nucleotide/(kpol/Kd) nucleotide analogue (discrimination) ([24]; wild-type RT, listed as PMPADP): 22 | Kd ([24]; wild-type RT, read-out: Kd): 23 µM

Nc1ncnc2c1ncn2[C@H]1C[C@H](O)[C@@H](COP(=O)(O)OP(=O)(O)OP(=O)(O)O)O1 [dATP]
Kd ([23]; K65R mutant RT): 6.89 µM | kpol ([23]; K65R mutant RT): 11.63 s⁻¹ | kpol/Kd ([23]; K65R mutant RT): 1.69 | kpol ([24]; wild-type RT): 50.16 s⁻¹ | kpol/Kd ([24]; wild-type RT): 6.71 | Kd ([24]; wild-type RT, read-out: Kd): 7.47 µM | Kd ([24]; wild-type RT, unit inferred, read-out: affinities of the RT for the analogues (Kd)): 7.5 µM
